In this experiment the test system is anti-OVA-IgE, IgG1, IgG2a in serum. Description: Anti-OVA antibody in serum of OVA/alum-sensitized mice (Experiment 4). The experiment is classed as in vivo. Particulars: for Anti-OVA-IgG1 in serum / Anti-OVA-IgG2a in serum / Anti-OVA-IgG1 in serum, relative value to control / Anti-OVA-IgG2a in serum, relative value to control: two weeks after the second sensitization. How it is done:
In order to investigate the effect of lactosucorse on systemic immunity, antibody level in serum was measured. Similarly as in Experiment 1, female BALB/c mice (six weeks old) were preliminary reared for one week on “AIN-93G”, the same standard purified diet as used in Experiment 1. Successively, “NYU-KA OLIGO 700”, a saccharide composition comprising 71.4% (w/w), on a dry solid basis, of lactosucrose commercialized by Hayashibara Shoji Inc., Okayama, Japan, was incorporated into the above purified diet, in which corn starch equal to the amount of the saccharide composition comprising lactosucrose had been removed, to give a lactosucrose content of 2% (w/w) or 5% (w/w), and five to seven mice/group were allowed to ingest the resulting test diet freely. Mice, allowed to ingest “AIN-93G”, as the standard purified diet, were used as control. At 10 days after from starting the administration of the test diet, mice were sensitized to antigen by administrating 20 μg of ovalbumin (OVA) (grade V, commercialized by Sigma Corporation) as antigen and 4.5 mg of “IMJECT®”, alum commercialized by Pierce ThermoScientific as adjuvant, into the peritoneal cavity. Successively, 15 days after from the first sensitization, the second sensitization was carried out by the same procedure. The blood was collected from caudal vein of mice at one, two, and three weeks after from the second sensitization, the serum was collected by centrifugation, and the amount of IgE to OVA was measured by EIA. In the cases of IgG1 and IgG2a, the amount of antibody was measured using serum collected at two weeks after from the second sensitization. The IgE and IgG2a titers were measured by capture EIA and IgG1 titer was measured by indirect EIA. Each titer was calculated by calibration curve prepared by using anti-OVA mouse serum (IgE: 1.760 U/ml, IgG1: 128,000 U/ml, IgG2a: 7,040 u/ml) as a standard serum. The amounts of IgE at one, two, or three weeks after from the second sensitization are in Table 5, and the amounts of IgG1 and IgG2a of two weeks after from the second sensitization are in Table 6. The percentages in parentheses in tables mean a relative value to the antibody concentration in serum of the control mice.

Each structure is given as a SMILES string.

The text below walks through data of patent publication US20090270342A1, “IMMUNOREGULATORY AGENT” (priority 2006, published 2009).

Take `OC[C@H]1O[C@@H](O[C@H]2[C@H](O)[C@@H](O)[C@@H](O[C@]3(CO)O[C@H](CO)[C@@H](O)[C@@H]3O)O[C@@H]2CO)[C@H](O)[C@@H](O)[C@H]1O` [Lactosucrose, β-D-galactosyl-(1,4)-α-D-glucosyl-(1,2)-β-D-fructoside]: the Anti-OVA-IgE in serum was determined as 270 ± 160 U/ml (Lactosucrose 2% (w/w) diet, one week after the 2nd sensitization); 110 ± 62 U/ml (Lactosucrose 2% (w/w) diet, three weeks after the 2nd sensitization); 150 ± 35 U/ml (Lactosucrose 2% (w/w) diet, two weeks after the 2nd sensitization); 290 ± 77 U/ml (Lactosucrose 5% (w/w) diet, one week after the 2nd sensitization); 160 ± 57 U/ml (Lactosucrose 5% (w/w) diet, three weeks after the 2nd sensitization); 120 ± 32 U/ml (Lactosucrose 5% (w/w) diet, two weeks after the 2nd sensitization). Moreover, the Anti-OVA-IgG1 in serum is listed as 27 ± 10 ×10^4 U/ml (Lactosucrose 2% (w/w) diet) and 28 ± 7.5 ×10^4 U/ml (Lactosucrose 5% (w/w) diet). Also, the Anti-OVA-IgG2a in serum runs as follows: (Lactosucrose 2% (w/w) diet) 4.0 ± 3.4 ×10^4 U/ml; (Lactosucrose 5% (w/w) diet) 4.8 ± 3.8 ×10^4 U/ml. Besides, the “Anti-OVA-IgE in serum, relative value to control” value (Lactosucrose 2% (w/w), one week after the 2nd sensitization) is listed as “(87%)”; the “Anti-OVA-IgE in serum, relative value to control” value (Lactosucrose 2% (w/w), three weeks after the 2nd sensitization) is listed as “(52%)”; the “Anti-OVA-IgE in serum, relative value to control” value (Lactosucrose 2% (w/w), two weeks after the 2nd sensitization) is given as “(58%)”; the “Anti-OVA-IgE in serum, relative value to control” value (Lactosucrose 5% (w/w), one week after the 2nd sensitization) is “(94%)”; the “Anti-OVA-IgE in serum, relative value to control” value (Lactosucrose 5% (w/w), three weeks after the 2nd sensitization) is listed as “(48%)”; the “Anti-OVA-IgE in serum, relative value to control” value (Lactosucrose 5% (w/w), two weeks after the 2nd sensitization) is recorded as “(46%)”. The “Anti-OVA-IgG1 in serum, relative value to control” value (Lactosucrose 2% (w/w)) is “(68%)” and the “Anti-OVA-IgG1 in serum, relative value to control” value (Lactosucrose 5% (w/w)) was “(70%)”. Further, the “Anti-OVA-IgG2a in serum, relative value to control” value is reported as “(41%)” (Lactosucrose 2% (w/w)) and “(49%)” (Lactosucrose 5% (w/w)).
